Among the data in ChEMBL document CHEMBL5244218, “Quinolone derivatives and their activities against methicillin-resistant Staphylococcus aureus (MRSA)” (Eur J Med Chem, 2018) are MIC and MBC values, retold here.

In brackets after ≈: the same amount, converted by molar mass.

Assay [1] has as its system Staphylococcus aureus. Put plainly: Antimicrobial activity against methicillin-resistant Staphylococcus aureus incubated for 18 hrs by Agar dilution method. The class given is functional.
In assay [2] the test system is Staphylococcus aureus. The assay can be described thus: Antimicrobial activity against methicillin-resistant Staphylococcus aureus assessed as inhibition of microbial growth. It counts as functional.
In assay [3] the test system is Staphylococcus aureus. The assay can be described thus: Bactericidal activity against methicillin-resistant Staphylococcus aureus assessed as inhibition of microbial growth. It counts as functional.
Assay [4] deals with Staphylococcus aureus. The assay can be described thus: Antibacterial activity against methicillin-resistant Staphylococcus aureus assessed as inhibition of microbial growth. The class given is functional.
In assay [5] the test system is Staphylococcus aureus. Put plainly: Antimicrobial activity against methicillin-resistant Staphylococcus aureus incubated for 18 hrs by Alamar blue staining based analysis. The class given is functional.
Assay [6] deals with Staphylococcus aureus. The assay can be described thus: Antimicrobial activity against methicillin-resistant Staphylococcus aureus. The class given is functional, organism-based.

Consider `Nc1[nH]nc2c1CN(c1nc3c(cc1F)c(=O)c(C(=O)O)cn3-c1ccc(F)cc1F)C2`, for which the MIC in the assay on Staphylococcus aureus [1] was determined as 0.125 µg/mL (≈ 0.283 µM).

Turning to `COc1ccccc1C(=O)N1CCN(C(=O)N2CCN(c3ccc4c(=O)c(C(=O)O)cn(C5CC5)c4c3)CC2)CC1`, in the assay on Staphylococcus aureus [2], the MIC is below 0.016 µg/mL. For the same compound, the MBC in the assay with Staphylococcus aureus [3] was at least 128 µg/mL. Turning to `CC(=O)c1c(N2CC(CN)C(C)(C)C2)ccc2c(=O)c(C(=O)O)cn(C3CC3)c12` (configuration not stated), in the assay on Staphylococcus aureus [4], the MIC came to 0.015 µg/mL. In the assay on Staphylococcus aureus [5], `COc1c(N2CC/C(=N/Oc3ccc(C)c(C)c3)C(N)C2)c(F)cc2c(=O)c(C(=O)O)cn(C3CC3)c12` (configuration not stated) yielded an MIC of 8 ng/mL (≈ 0.0157 µM). `COc1ccc(O/N=C2/CCN(c3c(F)cc4c(=O)c(C(=O)O)cn(C5CC5)c4c3OC)CC2N)cc1` (configuration not stated) gave an MIC in the assay with Staphylococcus aureus [5] of 8 ng/mL (≈ 0.0157 µM).

In the case of `Cn1nc2c(c1N)CN(c1nc3c(cc1F)c(=O)c(C(=O)O)cn3-c1ccc(F)cc1F)C2`, the MIC against Staphylococcus aureus [1] came out at 0.125 µg/mL (≈ 0.274 µM). For the compound `COc1cccc(O/N=C2/CCN(c3c(F)cc4c(=O)c(C(=O)O)cn(C5CC5)c4c3OC)CC2N)c1` (configuration not stated), it took 8 ng/mL (≈ 0.0157 µM) to inhibit growth against Staphylococcus aureus [5] (MIC). With `COc1ccc(C(=O)N2CCN(C(=O)N3CCN(c4ccc5c(=O)c(C(=O)O)cn(C6CC6)c5c4)CC3)CC2)cc1`, the MIC with Staphylococcus aureus [2] is below 0.016 µg/mL. In addition, in the assay on Staphylococcus aureus [3], the MBC is at least 128 µg/mL. As for `CC(=O)c1c(N2Cc3nn(C)c(N)c3C2)c(F)cc2c(=O)c(C(=O)O)cn(C3CC3)c12`, the lowest concentration to inhibit growth in the assay on Staphylococcus aureus [1] (MIC) was 0.125 µg/mL (≈ 0.294 µM). For the compound `Cn1nc2c(c1N)CN(c1c(F)cc3c(=O)c(C(=O)O)cn(CCF)c3c1F)C2`, inhibition of growth against Staphylococcus aureus [1] (MIC) required 0.125 µg/mL (≈ 0.307 µM).

Take `O=C(O)c1c[nH]c2cc(N3CCN([C@@H]4O[C@H](CO)[C@@H](O)[C@H](O)[C@H]4O)CC3)c(F)cc2c1=O`: in the assay on Staphylococcus aureus [2], the minimum inhibitory concentration (MIC) was 0.5 µg/mL. The compound `CC(=O)c1c(N2Cc3n[nH]c(N)c3C2)c(F)cc2c(=O)c(C(=O)O)cn(C3CC3)c12` showed an MIC in the assay with Staphylococcus aureus [1] of 0.125 µg/mL (≈ 0.304 µM). Turning to `O=C(O)c1c[nH]c2cc(N3CCN([C@@H]4O[C@H](CO)[C@H](O)[C@H](O)[C@H]4O)CC3)c(F)cc2c1=O`, the MIC in the assay with Staphylococcus aureus [2] is 0.5 µg/mL.

On to `O=C(O)c1cn(C2CC2)c2c(c1=O)C=C(F)C1N=NC(c3cccc([N+](=O)[O-])c3)=CN21` (configuration not stated), for which the MIC with Staphylococcus aureus [2] came to 0.25 µg/mL.

Turning to `CNCC1CN(c2ccc3c(=O)c(C(=O)O)cn(C4CC4)c3c2C(C)=O)CC1(C)C` (configuration not stated), the MIC in the assay on Staphylococcus aureus [4] was found to be 0.015 µg/mL. `COc1cc(Br)ccc1O/N=C1/CCN(c2c(F)cc3c(=O)c(C(=O)O)cn(C4CC4)c3c2OC)CC1N` (configuration not stated): 8 ng/mL (≈ 0.0136 µM) was the least that counted as inhibitory against Staphylococcus aureus [5] (MIC). Regarding `CC1(C)CN(c2ccc3c(=O)c(C(=O)O)cn(C4CC4)c3n2)CC1CN` (configuration not stated), the MIC in the assay on Staphylococcus aureus [4] worked out at 0.015 µg/mL. As to `Nc1ccc(C2=CN3c4c(c(=O)c(C(=O)O)cn4C4CC4)C=C(F)C3N=N2)cc1` (configuration not stated), in the assay on Staphylococcus aureus [2], the MIC came out at 0.25 µg/mL. In turn, `CCc1ccc(O/N=C2/CCN(c3c(F)cc4c(=O)c(C(=O)O)cn(C5CC5)c4c3OC)CC2N)cc1CC` (configuration not stated) returned an MIC in the assay with Staphylococcus aureus [5] of 8 ng/mL (≈ 0.0149 µM). With `Cc1ccccc1C1=CN2c3c(c(=O)c(C(=O)O)cn3C3CC3)C=C(F)C2N=N1` (configuration not stated), the MIC in the assay with Staphylococcus aureus [2] amounted to 0.25 µg/mL. With `COc1ccccc1O/N=C1/CCN(c2c(F)cc3c(=O)c(C(=O)O)cn(C4CC4)c3c2OC)CC1N` (configuration not stated), 8 ng/mL (≈ 0.0157 µM) was the least that counted as inhibitory against Staphylococcus aureus [5] (MIC). `COc1cccc(O/N=C2/CCN(c3c(F)cc4c(=O)c(C(=O)O)cn(C5CC5)c4c3OC)CC2N)c1OC` (configuration not stated) showed an MIC with Staphylococcus aureus [5] of 8 ng/mL (≈ 0.0148 µM). `CCn1cc(C(=O)O)c(=O)c2cc(F)c(N3Cc4nn(C)c(N)c4C3)c(F)c21` registered an MIC against Staphylococcus aureus [1] of 0.125 µg/mL (≈ 0.321 µM).

As to `Cc1ccc(C2=CN3c4c(c(=O)c(C(=O)O)cn4C4CC4)C=C(F)C3N=N2)cc1` (configuration not stated), the MIC in the assay with Staphylococcus aureus [2] turned out to be 0.25 µg/mL. For the compound `COc1c(N2CC/C(=N/Oc3ccc(F)cc3)C(N)C2)c(F)cc2c(=O)c(C(=O)O)cn(C3CC3)c12` (configuration not stated), the MIC in the assay with Staphylococcus aureus [5] stood at 8 ng/mL (≈ 0.016 µM). Take `COc1ccccc1C1=CN2c3c(c(=O)c(C(=O)O)cn3C3CC3)C=C(F)C2N=N1` (configuration not stated): the MIC with Staphylococcus aureus [2] came to 0.25 µg/mL.

`COc1ccc(C2=CN3c4c(c(=O)c(C(=O)O)cn4C4CC4)C=C(F)C3N=N2)cc1` (configuration not stated): the MIC in the assay with Staphylococcus aureus [2] came to 0.25 µg/mL. For the compound `CC(=O)c1c(N2CC(CN)C(C)(C)C2)cc(N)c2c(=O)c(C(=O)O)cn(C3CC3)c12` (configuration not stated), in the assay with Staphylococcus aureus [4], the MIC is 0.015 µg/mL. Take `Nc1[nH]nc2c1CN(c1nc3c(cc1F)c(=O)c(C(=O)O)cn3C1CC1)C2`: the MIC against Staphylococcus aureus [1] was determined as 0.125 µg/mL (≈ 0.338 µM). In the assay on Staphylococcus aureus [6], `CCO/N=C1\CCN(c2c(F)cc3c(=O)c(C(=O)O)cn(C4CC4)c3c2F)CC1(C)CN` (configuration not stated) came in with a minimal inhibitory concentration (MIC) of 8 µg/mL (≈ 17.8 µM). In the assay with Staphylococcus aureus [5], `COc1c(N2CC/C(=N/Oc3ccccc3)C(N)C2)c(F)cc2c(=O)c(C(=O)O)cn(C3CC3)c12` (configuration not stated) displayed an MIC of 8 ng/mL (≈ 0.0166 µM).

As for `CNCC1CN(c2ccc3c(=O)c(C(=O)O)cn(-c4ccc(F)cc4F)c3n2)CC1(C)C` (configuration not stated), in the assay with Staphylococcus aureus [4], the MIC came out at 0.015 µg/mL.

`O=C(O)c1cn(C2CC2)c2c(c1=O)C=C(F)C1N=NC(c3ccc([N+](=O)[O-])cc3)=CN21` (configuration not stated): the MIC in the assay with Staphylococcus aureus [2] came to 0.25 µg/mL. In the assay on Staphylococcus aureus [5], `CNC1CCCN(c2c(F)cc3c(=O)c(C(=O)O)cn(C4CC4)c3c2OC)C1` (configuration not stated) [BALOFLOXACIN] gave an MIC of 4000 ng/mL (≈ 10.3 µM). On to `COc1c(N2CCNC(C)C2)c(F)cc2c(=O)c(C(=O)O)cn(C3CC3)c12` (configuration not stated) [GATIFLOXACIN], for which the MIC in the assay with Staphylococcus aureus [1] turned out to be 0.06 µg/mL (≈ 0.16 µM); with Staphylococcus aureus [4] it was 0.06 µg/mL; in the assay on Staphylococcus aureus [6], 16 µg/mL (≈ 42.6 µM).

As for `CO/N=C1\CN(c2nc3c(cc2F)c(=O)c(C(=O)O)cn3C2CC2)CC1CN` (configuration not stated) [GEMIFLOXACIN], the figures for the MIC in the assay with Staphylococcus aureus [1] and against Staphylococcus aureus [5] were 0.06 µg/mL (≈ 0.154 µM) and 4000 ng/mL (≈ 10.3 µM), respectively.

`COc1c(N2C[C@@H]3CCCN[C@@H]3C2)c(F)cc2c(=O)c(C(=O)O)cn(C3CC3)c12` [MOXIFLOXACIN]: inhibition of growth against Staphylococcus aureus [1] (MIC) required 0.06 µg/mL (≈ 0.149 µM).
